Assay results reported in patent US12590066B2, “Fused-heterocyclyl-carbonohydrazonoyl dicyanide compounds and use thereof” (KOREA INSTITUTE OF SCIENCE AND TECHNOLOGY, priority 2020, dated 2026).

What was measured:
Format in all cases: in vitro ADME
[1] = Liver microsome stability; details: 1 μM compound, 37° C., 30 minutes, NADPH; for Human (%) amount of substrate remaining after the reaction: human liver microsomes 0.25 mg/mL; for Mouse (%) amount of substrate remaining after the reaction: mouse liver microsomes 0.25 mg/mL; for Rat (%) amount of substrate remaining after the reaction: rat liver microsomes 0.25 mg/mL; for Dog (%) amount of substrate remaining after the reaction: dog liver microsomes 0.25 mg/mL
Description: The stability of liver microsomes due to the compounds prepared according to Examples 1 to 57 was confirmed. Specifically, four types of liver microsomes (human, dog, rat, and mouse, each 0.25 mg/mL), a 0.1 M phosphate buffer solution (pH 7.4), and each of the compounds at a concentration of 1 μM were mixed and pre-cultured at 37° C. for 5 minutes and further cultured at 37° C. for 30 minutes together with an NADPH generation system solution added thereto. Thereafter, the reaction was terminated by adding an acetonitrile solution containing an internal standard material (chloropropamide) and centrifuged for 5 minutes (14,000 rpm, 4° C.), and then a supernatant was injected into an LC-MS/MS system for analysis of substrate drugs to thereby evaluate metabolic stability due to 8 types of compounds.
The amount of the substrate remaining after the reaction was analyzed using the Shimadzu Nexera XR system and TSQ Vantage (Thermo). In an HPLC column, Kinetex XB-C18 (2.1 mm×100 mm, particle size of 2.6 μm; Phenomenex, USA) was used, and mobile phases were (A) distilled water containing 0.1% formic acid and (B) acetonitrile containing 0.1% formic acid. Analyst software (version 1.6.3) and Xcalibur (version 1.6.1) were used for data analysis.

CYP1A2 = biological target: T1, CYP1A2 (Homo sapiens, UniProt P05177); assay: Inhibitory effect on CYP coenzyme activity, human liver microsomes; details: 10 μM compound, human liver microsomes 0.25 mg/mL, substrate phenacetin, 15 minutes
T1 construct: human liver microsomes (0.25 mg/mL); from tissue; host or cells: human liver microsomes
T1 sequence (P05177 1-516): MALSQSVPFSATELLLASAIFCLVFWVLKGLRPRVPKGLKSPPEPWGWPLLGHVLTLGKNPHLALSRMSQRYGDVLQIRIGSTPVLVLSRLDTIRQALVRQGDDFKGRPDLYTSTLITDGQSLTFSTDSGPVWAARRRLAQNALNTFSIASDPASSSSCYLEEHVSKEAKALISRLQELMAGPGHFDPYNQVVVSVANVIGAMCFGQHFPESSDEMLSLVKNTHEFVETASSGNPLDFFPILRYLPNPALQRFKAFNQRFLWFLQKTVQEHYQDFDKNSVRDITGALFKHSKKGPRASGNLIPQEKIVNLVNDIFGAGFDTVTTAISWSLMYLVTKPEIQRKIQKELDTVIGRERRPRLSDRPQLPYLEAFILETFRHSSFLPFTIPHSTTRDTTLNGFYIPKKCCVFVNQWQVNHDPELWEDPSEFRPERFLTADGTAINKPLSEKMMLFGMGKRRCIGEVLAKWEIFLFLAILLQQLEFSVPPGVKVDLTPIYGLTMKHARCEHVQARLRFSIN
Description: (§1) The inhibitory effects of the compounds prepared according to Examples 1 to 57 on CYP coenzyme activity were identified. Specifically, human liver microsomes (0.25 mg/mL), a 0.1 M phosphate buffer solution (pH 7.4), a substrate drug cocktail of five types of drug metabolism enzymes (50 μM phenacetin, 10 μM diclofenac, 100 μM S-mephenytoin, 5 μM dextromethorphan, and 2.5 μM midazolam), and the compound at a concentration of 0 μM or 10 μM were mixed and pre-cultured at 37° C. for 5 minutes, and then further cultured at 37° C. for 15 minutes together with an NADPH generation system solution added thereto. Thereafter, the reaction was terminated by adding an acetonitrile solution containing an internal standard material (terfenadine) and centrifuged for 5 minutes (14,000 rpm, 4° C.), and then a supernatant was injected into an LC-MS/MS system for simultaneous analysis of metabolites of the substrate drugs to thereby evaluate the inhibitory effects on drug metabolism.
(§2) Metabolites of each CYP coenzyme indicator drug generated through the reaction were analyzed using the Shimadzu Nexera XR system and TSQ Vantage (Thermo). In an HPLC column, Kinetex C18 (2.1 mm×100 mm, 2.6 μm, particle size; Phenomenex, USA) was used, and mobile phases were (A) distilled water containing 0.1% formic acid and (B) acetonitrile containing 0.1% formic acid, and a gradient program shown in Table 3 was applied thereto.
(§3) The generated metabolites were quantified using a multiple reaction monitoring (MRM) quantification mode, and Xcalibur (version 1.6.1) was used for data analysis. In order to express inhibitory effects of the novel compound prepared according to the examples of the present invention on CYP coenzyme activity, CYP coenzyme activities (%) with respect to the control group not treated with the compound are shown in Table 4 below.

CYP2D6 = biological target: T2, CYP2D6 (Homo sapiens, UniProt P10635); assay: as above; details: 10 μM compound, human liver microsomes 0.25 mg/mL, substrate dextromethorphan, 15 minutes
T2 construct: human liver microsomes (0.25 mg/mL); from tissue; host or cells: human liver microsomes
T2 sequence (P10635 whole entry): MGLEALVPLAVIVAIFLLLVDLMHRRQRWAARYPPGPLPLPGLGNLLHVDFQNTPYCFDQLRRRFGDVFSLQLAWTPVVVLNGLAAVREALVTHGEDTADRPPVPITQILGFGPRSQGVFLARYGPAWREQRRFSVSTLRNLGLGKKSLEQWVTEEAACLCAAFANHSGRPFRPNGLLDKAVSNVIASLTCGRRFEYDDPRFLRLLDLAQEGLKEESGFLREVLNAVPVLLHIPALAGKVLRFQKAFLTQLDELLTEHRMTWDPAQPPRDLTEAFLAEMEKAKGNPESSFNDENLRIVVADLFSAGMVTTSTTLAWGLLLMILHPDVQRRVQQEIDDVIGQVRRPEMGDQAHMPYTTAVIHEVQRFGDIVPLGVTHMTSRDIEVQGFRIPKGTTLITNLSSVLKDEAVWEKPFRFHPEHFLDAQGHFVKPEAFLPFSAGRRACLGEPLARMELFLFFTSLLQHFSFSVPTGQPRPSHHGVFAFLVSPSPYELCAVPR
Description: as §1, §2, §3

CYP2C19 = biological target: T3, CYP2C19 (Homo sapiens, UniProt P33261); assay: as above; details: 10 μM compound, human liver microsomes 0.25 mg/mL, substrate S-mephenytoin, 15 minutes
T3 construct: human liver microsomes (0.25 mg/mL); from tissue; host or cells: human liver microsomes
T3 sequence (P33261 whole entry): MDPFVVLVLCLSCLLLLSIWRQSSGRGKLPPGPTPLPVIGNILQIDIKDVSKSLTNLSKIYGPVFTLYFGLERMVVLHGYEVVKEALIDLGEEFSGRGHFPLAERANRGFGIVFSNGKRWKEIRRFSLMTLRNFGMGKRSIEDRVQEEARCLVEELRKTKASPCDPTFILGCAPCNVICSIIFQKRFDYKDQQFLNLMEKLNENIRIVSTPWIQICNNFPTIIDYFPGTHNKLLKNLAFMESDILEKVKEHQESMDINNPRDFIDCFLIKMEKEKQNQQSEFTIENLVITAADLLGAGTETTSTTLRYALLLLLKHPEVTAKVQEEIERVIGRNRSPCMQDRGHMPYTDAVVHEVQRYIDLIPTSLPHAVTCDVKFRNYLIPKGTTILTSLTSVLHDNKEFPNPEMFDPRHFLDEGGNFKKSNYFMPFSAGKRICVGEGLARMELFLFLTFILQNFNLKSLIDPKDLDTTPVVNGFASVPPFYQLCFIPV
Description: as §1, §2, §3

CYP2C9 = biological target: T4, CYP2C9 (Homo sapiens, UniProt P11712); assay: as above; details: 10 μM compound, human liver microsomes 0.25 mg/mL, substrate diclofenac, 15 minutes
T4 construct: human liver microsomes (0.25 mg/mL); from tissue; host or cells: human liver microsomes
T4 sequence (P11712 whole entry): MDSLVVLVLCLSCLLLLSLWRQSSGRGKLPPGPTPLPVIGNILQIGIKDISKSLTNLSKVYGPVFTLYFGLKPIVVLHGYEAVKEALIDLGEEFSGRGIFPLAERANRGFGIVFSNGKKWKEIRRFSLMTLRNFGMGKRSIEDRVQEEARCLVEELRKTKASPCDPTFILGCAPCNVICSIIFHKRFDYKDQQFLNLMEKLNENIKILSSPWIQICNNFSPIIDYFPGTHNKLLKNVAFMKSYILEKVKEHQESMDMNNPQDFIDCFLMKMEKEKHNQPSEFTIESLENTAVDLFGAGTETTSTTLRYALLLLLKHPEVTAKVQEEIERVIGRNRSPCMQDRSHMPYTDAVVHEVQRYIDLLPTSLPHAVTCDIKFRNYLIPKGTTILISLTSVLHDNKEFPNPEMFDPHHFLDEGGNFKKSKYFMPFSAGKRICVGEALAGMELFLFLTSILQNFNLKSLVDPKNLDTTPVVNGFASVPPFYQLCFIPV
Description: as §1, §2, §3

CYP3A4 = biological target: T5, CYP3A4 (Homo sapiens, UniProt P08684); assay: as above; details: 10 μM compound, human liver microsomes 0.25 mg/mL, substrate midazolam, 15 minutes
T5 construct: human liver microsomes (0.25 mg/mL); from tissue; host or cells: human liver microsomes
T5 sequence (P08684 whole entry): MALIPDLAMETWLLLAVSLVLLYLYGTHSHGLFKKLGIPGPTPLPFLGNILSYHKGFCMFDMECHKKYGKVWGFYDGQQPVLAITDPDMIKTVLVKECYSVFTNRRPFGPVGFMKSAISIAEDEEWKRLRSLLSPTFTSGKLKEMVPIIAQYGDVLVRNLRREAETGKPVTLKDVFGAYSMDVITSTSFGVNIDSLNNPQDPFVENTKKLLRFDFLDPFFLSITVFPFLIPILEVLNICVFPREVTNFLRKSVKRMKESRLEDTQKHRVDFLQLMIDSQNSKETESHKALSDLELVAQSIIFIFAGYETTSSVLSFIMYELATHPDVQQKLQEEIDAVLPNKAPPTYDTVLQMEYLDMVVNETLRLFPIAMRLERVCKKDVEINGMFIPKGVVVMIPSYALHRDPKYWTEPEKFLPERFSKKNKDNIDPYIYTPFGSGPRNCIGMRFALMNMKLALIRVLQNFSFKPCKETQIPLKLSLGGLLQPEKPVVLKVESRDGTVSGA
Description: as §1, §2, §3

Structure (SMILES)	Human (%) amount of substrate remaining after the reaction [1]	Mouse (%) amount of substrate remaining after the reaction [1]	Rat (%) amount of substrate remaining after the reaction [1]	CYP1A2 coenzyme activity (%) with respect to control group not treated (CYP1A2)	CYP2D6 coenzyme activity (%) with respect to control group not treated (CYP2D6)	CYP2C19 coenzyme activity (%) with respect to control group not treated (CYP2C19)	CYP2C9 coenzyme activity (%) with respect to control group not treated (CYP2C9)	CYP3A4 coenzyme activity (%) with respect to control group not treated (CYP3A4)	Dog (%) amount of substrate remaining after the reaction [1]
CCn1c(=O)n(C)c2cc(NN=C(C#N)C#N)ccc21 [Compound 38, (1-ethyl-3-methyl-2-oxo-2,3-dihydro-1H-benzo[d]imidazol-5-yl)carbonohydrazonoyl dicyanide]	95%	81.6%	91.8%	98.9%	>100%	>100%	92.6%	>100%	–
CCn1c(=O)n(C(C)C)c2ncc(NN=C(C#N)C#N)cc21 [Compound 55, (1-ethyl-3-isopropyl-2-oxo-2,3-dihydro-1H-imidazo[4,5-b]pyridin-6-yl)carbonohydrazonoyl dicyanide]	85.5%	87.7%	91.8%	58.4%	85.8%	73.1%	38.9%	78%	–
N#CC(C#N)=NNc1cccc2c(=O)[nH]ccc12 [Compound 4, (1-oxo-1,2-dihydroisoquinolin-5-yl)carbonohydrazonoyl dicyanide]	>100%	>100%	94.5%	85.3%	91.1%	89.7%	59.3%	81.6%	>100%
CC(C)n1ccc2c(NN=C(C#N)C#N)cccc2c1=O [Compound 6, (2-isopropyl-1-oxo-1,2-dihydroisoquinolin-5-yl)carbonohydrazonoyl dicyanide]	94.2%	87%	>100%	68.3%	85.4%	37.8%	8.7%	81.4%	95%
Cn1c(=O)n(C)c2c(Cl)cc(NN=C(C#N)C#N)cc21 [Compound 11, (7-chloro-1,3-dimethyl-2-oxo-2,3-dihydro-1H-benzo[d]imidazol-5-yl)carbonohydrazonoyl dicyanide]	96.1%	63.9%	82.8%	73.7%	>100%	88.4%	45.8%	>100%	63.1%
CC(C)n1ccc2ccc(NN=C(C#N)C#N)cc2c1=O [Compound 3, (2-isopropyl-1-oxo-1,2-dihydroisoquinolin-7-yl)carbonohydrazonoyl dicyanide]	57.4%	10.1%	44.4%	50.2%	>100%	98.2%	78.5%	>100%	6.4%
Cn1c(=O)n(C)c2cc(NN=C(C#N)C#N)ccc21 [Compound 22, (1,3-dimethyl-2-oxo-2,3-dihydro-1H-benzo[d]imidazol-5-yl)carbonohydrazonoyl dicyanide]	80.6%	63.1%	91.6%	93.5%	>100%	>100%	99%	>100%	92.2%
Cn1ccc2ccc(NN=C(C#N)C#N)cc2c1=O [Compound 2, (2-methyl-1-oxo-1,2-dihydroisoquinolin-7-yl)carbonohydrazonoyl dicyanide]	27%	63.4%	88%	43.5%	94.3%	79.2%	77.9%	89%	2.5%
Cn1c(=O)n(C(F)F)c2cc(NN=C(C#N)C#N)ccc21 [Compound 37, (3-(difluoromethyl)-1-methyl-2-oxo-2,3-dihydro-1H-benzo[d]imidazol-5-yl)carbonohydrazonoyl dicyanide]	84.9%	75.7%	58.5%	64.6%	>100%	90.7%	29.2%	96.7%	–
